± gives the standard deviation of the averaged measurements.
How the values were obtained:
Conditions in all cases: 72 h
[1] = test system: Caco-2; assay: cell viability relative to DMSO; higher = less toxic
[2] = test system: Calu-3; assay: as above
[3] = test system: HepG2; assay: as above
[4] = test system: U2OS; assay: as above
[5] = test system: Vero E6; assay: as above
[6] = test system: Caco-2; assay: relative viability EC50 (midpoint between 100% and the lowest measured viability); higher = less toxic
[7] = test system: Calu-3; assay: as above
[8] = test system: HepG2; assay: as above
[9] = test system: U2OS; assay: as above
[10] = test system: Vero E6; assay: as above
[11] = test system: Caco-2; assay: drug sensitivity score (DSS) for viability; higher = more toxic; extreme values may be limits of the assay
[12] = test system: Calu-3; assay: as above
[13] = test system: HepG2; assay: as above
[14] = test system: U2OS; assay: as above
[15] = test system: Vero E6; assay: as above

In the case of `N[C@@H](C(=O)O)c1ccc(C(=O)O)c(C(=O)O)c1` (racemic) [3,4-DCPG-(+/-)], the cell viability ([1]; 1 nM) is reported as 101 ± 5.2%, the cell viability ([1]; 10 nM) is reported as 94.9 ± 2.8% and the cell viability ([1]; 100 nM) is reported as 103 ± 3.2%. It also gave a cell viability ([1]; 1000 nM) of 96.6 ± 9.6%, a cell viability ([1]; 10000 nM) of 97.4 ± 2.9% and a cell viability ([2]; 1 nM) of 93.4 ± 4.4%. The cell viability ([2]; 10 nM) was 99.8 ± 2.7%, the cell viability ([2]; 100 nM) was 95.7 ± 3.2% and the cell viability ([2]; 1000 nM) was 93 ± 1.3%. It also gave a cell viability ([2]; 10000 nM) of 95.3 ± 1.3%, a cell viability ([3]; 1 nM) of 88.3 ± 15% and a cell viability ([3]; 10 nM) of 99.2 ± 3.1%. For the same compound, the cell viability ([3]; 100 nM) was 89.5 ± 20%, the cell viability ([3]; 1000 nM) was 102 ± 6.3% and the cell viability ([3]; 10000 nM) was 97.7 ± 20%. The cell viability ([4]; 1 nM) was 99.5 ± 2.4%, the cell viability ([4]; 10 nM) was 95.4 ± 0.42% and the cell viability ([4]; 100 nM) was 103%. It also gave a cell viability ([4]; 1000 nM) of 97.6 ± 3.8%, a cell viability ([4]; 10000 nM) of 100 ± 3.4% and a cell viability ([5]; 1 nM) of 96.8 ± 6%. The cell viability ([5]; 10 nM) was 101 ± 3.4%, the cell viability ([5]; 100 nM) was 96 ± 2.5% and the cell viability ([5]; 1000 nM) was 100 ± 3.2%. For the same compound, the cell viability ([5]; 10000 nM) was 105 ± 4.1%, the “relative viability EC50” value [6] was over 10 µM and the “relative viability EC50” value [7] was over 10 µM. The “relative viability EC50” value [8] was over 10 µM, the “relative viability EC50” value [9] was over 10 µM and the “relative viability EC50” value [10] was over 10 µM. It also gave a drug sensitivity score [11] of 0, a drug sensitivity score [12] of 0 and a drug sensitivity score [13] of 0. The drug sensitivity score [14] was 0 and the drug sensitivity score [15] was 0.
`O[C@@H](CN1CCC(Cc2ccc(F)cc2)CC1)c1ccc(Cl)cc1` (racemic) [eliprodil] showed a cell viability ([1]; 1 nM) of 100%, a cell viability ([1]; 10 nM) of 96.2% and a cell viability ([1]; 100 nM) of 101%. It also gave a cell viability ([1]; 1000 nM) of 103%, a cell viability ([1]; 10000 nM) of 104% and a cell viability ([2]; 1 nM) of 99.2%. The cell viability ([2]; 10 nM) was 95.2%, the cell viability ([2]; 100 nM) was 106% and the cell viability ([2]; 1000 nM) was 92.3%. The cell viability ([2]; 10000 nM) was 104%, the cell viability ([3]; 1 nM) was 96.6% and the cell viability ([3]; 10 nM) was 99.7%. It also gave a cell viability ([3]; 100 nM) of 97.8%, a cell viability ([3]; 1000 nM) of 87.6% and a cell viability ([3]; 10000 nM) of 108%. The cell viability ([4]; 1 nM) was 91.1%, the cell viability ([4]; 10 nM) was 93.3% and the cell viability ([4]; 100 nM) was 87.3%. It also gave a cell viability ([4]; 1000 nM) of 87.9%, a cell viability ([4]; 10000 nM) of 97.6% and a cell viability ([5]; 1 nM) of 98.8%. It also gave a cell viability ([5]; 10 nM) of 92%, a cell viability ([5]; 100 nM) of 98.8% and a cell viability ([5]; 1000 nM) of 98.1%. The cell viability ([5]; 10000 nM) was 105%, the “relative viability EC50” value [6] was over 10 µM and the “relative viability EC50” value [7] was over 10 µM. The “relative viability EC50” value [8] was over 10 µM, the “relative viability EC50” value [9] was over 10 µM and the “relative viability EC50” value [10] was over 10 µM. It also gave a drug sensitivity score [11] of 0, a drug sensitivity score [12] of 0 and a drug sensitivity score [13] of 0. It also gave a drug sensitivity score [14] of 0 and a drug sensitivity score [15] of 0.
For `CCCN1CCCC(c2cccc(O)c2)C1` (stereo in doubt) [preclamol], the cell viability ([1]; 1 nM) was 107%, the cell viability ([1]; 10 nM) was 94.9% and the cell viability ([1]; 100 nM) was 106%. For the same compound, the cell viability ([1]; 1000 nM) was 93.1%, the cell viability ([1]; 10000 nM) was 99.6% and the cell viability ([2]; 1 nM) was 110%. It also gave a cell viability ([2]; 10 nM) of 110%, a cell viability ([2]; 100 nM) of 112% and a cell viability ([2]; 1000 nM) of 93.5%. It also gave a cell viability ([2]; 10000 nM) of 99.6%, a cell viability ([3]; 1 nM) of 95.6% and a cell viability ([3]; 10 nM) of 110%. The cell viability ([3]; 100 nM) was 107%, the cell viability ([3]; 1000 nM) was 112% and the cell viability ([3]; 10000 nM) was 99.6%. The cell viability ([4]; 1 nM) was 102%, the cell viability ([4]; 10 nM) was 103% and the cell viability ([4]; 100 nM) was 102%. It also gave a cell viability ([4]; 1000 nM) of 99.1%, a cell viability ([4]; 10000 nM) of 101% and a cell viability ([5]; 1 nM) of 90.5%. The cell viability ([5]; 10 nM) was 99.2%, the cell viability ([5]; 100 nM) was 95.1% and the cell viability ([5]; 1000 nM) was 98.3%. For the same compound, the cell viability ([5]; 10000 nM) was 91.8%, the “relative viability EC50” value [6] was over 10 µM and the “relative viability EC50” value [7] was over 10 µM. The “relative viability EC50” value [8] was over 10 µM, the “relative viability EC50” value [9] was over 10 µM and the “relative viability EC50” value [10] was over 10 µM. For the same compound, the drug sensitivity score [11] was 0, the drug sensitivity score [12] was 0 and the drug sensitivity score [13] was 0. It also gave a drug sensitivity score [14] of 0 and a drug sensitivity score [15] of 0.
With `C[C@@]1(CO)[C@H](O)CC[C@@]2(C)[C@H]1CC[C@H]1C[C@@H]3C[C@@]12CC[C@]3(O)CO` [aphidicolin] the cell viability ([1]; 1 nM) was 100%, the cell viability ([1]; 10 nM) was 100% and the cell viability ([1]; 100 nM) was 80%. For the same compound, the cell viability ([1]; 1000 nM) was 79.2%, the cell viability ([1]; 10000 nM) was 72% and the cell viability ([2]; 1 nM) was 111%. The cell viability ([2]; 10 nM) was 100%, the cell viability ([2]; 100 nM) was 110% and the cell viability ([2]; 1000 nM) was 87.3%. The cell viability ([2]; 10000 nM) was 77.7%, the cell viability ([3]; 1 nM) was 100% and the cell viability ([3]; 10 nM) was 100%. The cell viability ([3]; 100 nM) was 91.3%, the cell viability ([3]; 1000 nM) was 50.5% and the cell viability ([3]; 10000 nM) was 22.5%. It also gave a cell viability ([4]; 1 nM) of 106%, a cell viability ([4]; 10 nM) of 104% and a cell viability ([4]; 100 nM) of 101%. It also gave a cell viability ([4]; 1000 nM) of 98.7%, a cell viability ([4]; 10000 nM) of 79.4% and a cell viability ([5]; 1 nM) of 106%. For the same compound, the cell viability ([5]; 10 nM) was 109%, the cell viability ([5]; 100 nM) was 100% and the cell viability ([5]; 1000 nM) was 90.7%. The cell viability ([5]; 10000 nM) was 35.8%, the “relative viability EC50” value [7] was over 10 µM and the “relative viability EC50” value [8] was 0.608 µM. For the same compound, the “relative viability EC50” value [9] was over 10 µM, the “relative viability EC50” value [10] was 2.02 µM and the drug sensitivity score [11] was 6.8. The drug sensitivity score [12] was 2.1, the drug sensitivity score [13] was 10.6 and the drug sensitivity score [14] was 0.8. It also gave a drug sensitivity score [15] of 5.1.
With `CCCc1cc(C(N)=S)ccn1` [protionamide] the cell viability ([1]; 1 nM) was 94.4%, the cell viability ([1]; 10 nM) was 80.4% and the cell viability ([1]; 100 nM) was 93.8%. For the same compound, the cell viability ([1]; 1000 nM) was 73.7%, the cell viability ([1]; 10000 nM) was 68.3% and the cell viability ([2]; 1 nM) was 96.2%. For the same compound, the cell viability ([2]; 10 nM) was 100%, the cell viability ([2]; 100 nM) was 88.9% and the cell viability ([2]; 1000 nM) was 107%. It also gave a cell viability ([2]; 10000 nM) of 92.4%, a cell viability ([3]; 1 nM) of 108% and a cell viability ([3]; 10 nM) of 105%. For the same compound, the cell viability ([3]; 100 nM) was 95.9%, the cell viability ([3]; 1000 nM) was 103% and the cell viability ([3]; 10000 nM) was 95.3%. It also gave a cell viability ([4]; 1 nM) of 104%, a cell viability ([4]; 10 nM) of 107% and a cell viability ([4]; 100 nM) of 98.6%. It also gave a cell viability ([4]; 1000 nM) of 96%, a cell viability ([4]; 10000 nM) of 96.4% and a cell viability ([5]; 1 nM) of 102%. For the same compound, the cell viability ([5]; 10 nM) was 98.6%, the cell viability ([5]; 100 nM) was 93.3% and the cell viability ([5]; 1000 nM) was 101%. The cell viability ([5]; 10000 nM) was 91.6%, the “relative viability EC50” value [7] was over 10 µM and the “relative viability EC50” value [8] was over 10 µM. For the same compound, the “relative viability EC50” value [9] was over 10 µM, the “relative viability EC50” value [10] was over 10 µM and the drug sensitivity score [11] was 5.7. It also gave a drug sensitivity score [12] of 0, a drug sensitivity score [13] of 0 and a drug sensitivity score [14] of 0. The drug sensitivity score [15] was 0.
Compound `OC(CCN1CCCCC1)(c1ccccc1)C1CCCCC1` (configuration not stated) [trihexyphenidyl] has a cell viability ([1]; 1 nM) of 101%, a cell viability ([1]; 10 nM) of 100% and a cell viability ([1]; 100 nM) of 95.5%. The cell viability ([1]; 1000 nM) was 94.6%, the cell viability ([1]; 10000 nM) was 74.7% and the cell viability ([2]; 1 nM) was 102%. It also gave a cell viability ([2]; 10 nM) of 98.9%, a cell viability ([2]; 100 nM) of 96.7% and a cell viability ([2]; 1000 nM) of 90.7%. The cell viability ([2]; 10000 nM) was 85.6%, the cell viability ([3]; 1 nM) was 101% and the cell viability ([3]; 10 nM) was 87.7%. It also gave a cell viability ([3]; 100 nM) of 100%, a cell viability ([3]; 1000 nM) of 93.2% and a cell viability ([3]; 10000 nM) of 83.4%. It also gave a cell viability ([4]; 1 nM) of 96.9%, a cell viability ([4]; 10 nM) of 103% and a cell viability ([4]; 100 nM) of 101%. It also gave a cell viability ([4]; 1000 nM) of 98.1%, a cell viability ([4]; 10000 nM) of 97.8% and a cell viability ([5]; 1 nM) of 103%. It also gave a cell viability ([5]; 10 nM) of 106%, a cell viability ([5]; 100 nM) of 112% and a cell viability ([5]; 1000 nM) of 98.9%. The cell viability ([5]; 10000 nM) was 83.1%, the “relative viability EC50” value [7] was over 10 µM and the “relative viability EC50” value [8] was over 10 µM. The “relative viability EC50” value [9] was over 10 µM, the “relative viability EC50” value [10] was over 10 µM and the drug sensitivity score [11] was 1.7. The drug sensitivity score [12] was 0.5, the drug sensitivity score [13] was 0.3 and the drug sensitivity score [14] was 0. The drug sensitivity score [15] was 0.5.

— the supplement of paper PMC13380429
